Source: PubChem BioAssay AID1963968 (Molecular Pharmacology Branch, DTP, NCI, 2024)

System: 945468-187-T-J3-PDC spheroids with HUVEC/MSC, viability
Assay: Anticancer human tumor 945468-187-T-J3-PDC patient-derived rectal carcinoma cell line growth inhibition [PI3K]
Settings: for IC50: curve of first compound; for viability, T/C: stronger effect = lower value
In short: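 Multi-cell spheroids combine tumor cells with HUVEC and human MSCs, treated with targeted agents alone or with inavolisib, alpelisib, duvelisib or copanlisib. Concentrations fall in half-log steps from at or near clinical Cmax, or from 10 microM where Cmax is unknown; viability read-out.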

[1] = second compound 0.00316 µM, first compound 0.0316 µM
[2] = second compound 0.00316 µM, first compound 0.1 µM
[3] = second compound 0.00316 µM, first compound 0.316 µM
[4] = second compound 0.00316 µM, first compound 1 µM
[5] = second compound 0.00316 µM, first compound 3.16 µM
[6] = second compound 0.00316 µM, first compound 10 µM
[7] = second compound 0.01 µM, first compound 0.0316 µM
[8] = second compound 0.01 µM, first compound 0.1 µM
[9] = second compound 0.01 µM, first compound 0.316 µM
[10] = second compound 0.01 µM, first compound 1 µM
[11] = second compound 0.01 µM, first compound 3.16 µM
[12] = second compound 0.01 µM, first compound 10 µM
[13] = second compound 0.0316 µM, first compound 0.0316 µM
[14] = second compound 0.0316 µM, first compound 0.1 µM
[15] = second compound 0.0316 µM, first compound 0.316 µM
[16] = second compound 0.0316 µM, first compound 1 µM
[17] = second compound 0.0316 µM, first compound 3.16 µM
[18] = second compound 0.0316 µM, first compound 10 µM
[19] = second compound 0.1 µM, first compound 0.0316 µM
[20] = second compound 0.1 µM, first compound 0.1 µM
[21] = second compound 0.1 µM, first compound 0.316 µM
[22] = second compound 0.1 µM, first compound 1 µM
[23] = second compound 0.1 µM, first compound 3.16 µM
[24] = second compound 0.1 µM, first compound 10 µM
[25] = second compound 0.316 µM, first compound 0.0316 µM
[26] = second compound 0.316 µM, first compound 0.1 µM
[27] = second compound 0.316 µM, first compound 0.316 µM
[28] = second compound 0.316 µM, first compound 1 µM
[29] = second compound 0.316 µM, first compound 3.16 µM
[30] = second compound 0.316 µM, first compound 10 µM
[31] = second compound 1 µM, first compound 0.0316 µM
[32] = second compound 1 µM, first compound 0.1 µM
[33] = second compound 1 µM, first compound 0.316 µM
[34] = second compound 1 µM, first compound 1 µM
[35] = second compound 1 µM, first compound 3.16 µM
[36] = second compound 1 µM, first compound 10 µM
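Note: spheroids exposed to agents for 7 days before viability read.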
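Throughout, for viability, T/C: 100% = DMSO vehicle control viability.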

C#Cc1c(F)ccc2cc(O)cc(-c3ncc4c(N5CC6CCC(C5)N6)nc(OCC56CCCN5CC(F)C6)nc4c3F)c12 (centres undefined) + CC(Nc1ccc2c(c1)OCCn1cc(N3C(=O)OCC3C(F)F)nc1-2)C(N)=O
IC50 (second compound 0.00316 µM): > 10 µM | IC50 (second compound 0.01 µM): > 10 µM | IC50 (second compound 0.0316 µM): > 10 µM | IC50 (second compound 0.1 µM): > 10 µM | IC50 (second compound 0.316 µM): > 10 µM | IC50 (second compound 1 µM): 2.76 µM | viability, T/C [1]: 94% | viability, T/C [2]: 103% | viability, T/C [3]: 94% | viability, T/C [4]: 114% | viability, T/C [5]: 120% | viability, T/C [6]: 113% | viability, T/C [7]: 94.1% | viability, T/C [8]: 100% | viability, T/C [9]: 94.6% | viability, T/C [10]: 115% | viability, T/C [11]: 138% | viability, T/C [12]: 102% | viability, T/C [13]: 100% | viability, T/C [14]: 104% | viability, T/C [15]: 99.8% | viability, T/C [16]: 118% | viability, T/C [17]: 115% | viability, T/C [18]: 105% | viability, T/C [19]: 122% | viability, T/C [20]: 112% | viability, T/C [21]: 97% | viability, T/C [22]: 117% | viability, T/C [23]: 115% | viability, T/C [24]: 103% | viability, T/C [25]: 111% | viability, T/C [26]: 99.6% | viability, T/C [27]: 91.3% | viability, T/C [28]: 106% | viability, T/C [29]: 91% | viability, T/C [30]: 56.1% | viability, T/C [31]: 76.2% | viability, T/C [32]: 73.2% | viability, T/C [33]: 64.9% | viability, T/C [34]: 70.2% | viability, T/C [35]: 47.3% | viability, T/C [36]: 29%

CC(Cn1ccc(-c2ccc(C#N)c(Cl)c2)n1)NC(=O)c1cc(C(C)O)[nH]n1 (centres undefined) + CC(Nc1ccc2c(c1)OCCn1cc(N3C(=O)OCC3C(F)F)nc1-2)C(N)=O
IC50 (second compound 0.00316 µM): > 10 µM | IC50 (second compound 0.01 µM): > 10 µM | IC50 (second compound 0.0316 µM): > 10 µM | IC50 (second compound 0.1 µM): > 10 µM | IC50 (second compound 0.316 µM): > 10 µM | IC50 (second compound 1 µM): > 10 µM | viability, T/C [1]: 95.2% | viability, T/C [2]: 99.4% | viability, T/C [3]: 106% | viability, T/C [4]: 112% | viability, T/C [5]: 114% | viability, T/C [6]: 99.6% | viability, T/C [7]: 111% | viability, T/C [8]: 104% | viability, T/C [9]: 93.6% | viability, T/C [10]: 111% | viability, T/C [11]: 114% | viability, T/C [12]: 106% | viability, T/C [13]: 115% | viability, T/C [14]: 107% | viability, T/C [15]: 101% | viability, T/C [16]: 111% | viability, T/C [17]: 109% | viability, T/C [18]: 107% | viability, T/C [19]: 109% | viability, T/C [20]: 115% | viability, T/C [21]: 115% | viability, T/C [22]: 114% | viability, T/C [23]: 107% | viability, T/C [24]: 99.1% | viability, T/C [25]: 107% | viability, T/C [26]: 107% | viability, T/C [27]: 96.7% | viability, T/C [28]: 115% | viability, T/C [29]: 108% | viability, T/C [30]: 102% | viability, T/C [31]: 80.5% | viability, T/C [32]: 68.6% | viability, T/C [33]: 75.4% | viability, T/C [34]: 71.2% | viability, T/C [35]: 74.8% | viability, T/C [36]: 71.1%
